The target of experiment [1] is T1, Androgen receptor (Rattus norvegicus, UniProt P15207).
T1 sequence (P15207 whole entry): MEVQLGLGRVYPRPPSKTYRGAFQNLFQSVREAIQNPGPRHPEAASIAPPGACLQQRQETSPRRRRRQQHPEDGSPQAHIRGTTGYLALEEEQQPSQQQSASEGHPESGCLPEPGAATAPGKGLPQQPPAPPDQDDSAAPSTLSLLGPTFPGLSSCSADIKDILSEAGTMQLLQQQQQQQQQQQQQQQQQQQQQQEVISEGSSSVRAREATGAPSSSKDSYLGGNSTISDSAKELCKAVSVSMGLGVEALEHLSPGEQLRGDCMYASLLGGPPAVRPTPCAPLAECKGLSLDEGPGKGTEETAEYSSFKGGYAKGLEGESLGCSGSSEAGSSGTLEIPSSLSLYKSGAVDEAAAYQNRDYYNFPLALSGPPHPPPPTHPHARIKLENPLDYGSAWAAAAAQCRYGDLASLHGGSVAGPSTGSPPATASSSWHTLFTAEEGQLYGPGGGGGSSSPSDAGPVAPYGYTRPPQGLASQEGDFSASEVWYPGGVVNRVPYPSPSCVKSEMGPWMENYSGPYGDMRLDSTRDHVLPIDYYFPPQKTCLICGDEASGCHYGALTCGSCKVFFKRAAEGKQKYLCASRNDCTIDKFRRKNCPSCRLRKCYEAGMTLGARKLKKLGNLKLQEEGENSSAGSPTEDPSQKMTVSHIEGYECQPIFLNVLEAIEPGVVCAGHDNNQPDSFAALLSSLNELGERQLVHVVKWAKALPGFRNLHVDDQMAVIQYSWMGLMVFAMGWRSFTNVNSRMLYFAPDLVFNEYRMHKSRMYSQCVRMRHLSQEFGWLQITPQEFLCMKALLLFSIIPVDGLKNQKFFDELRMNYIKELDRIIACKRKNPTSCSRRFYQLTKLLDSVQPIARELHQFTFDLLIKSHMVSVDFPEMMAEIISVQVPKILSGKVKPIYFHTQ
The class given is functional.

In experiment [2] the target is T2, Muscarinic acetylcholine receptor M4 (Homo sapiens, UniProt P08173).
T2 sequence (P08173 whole entry): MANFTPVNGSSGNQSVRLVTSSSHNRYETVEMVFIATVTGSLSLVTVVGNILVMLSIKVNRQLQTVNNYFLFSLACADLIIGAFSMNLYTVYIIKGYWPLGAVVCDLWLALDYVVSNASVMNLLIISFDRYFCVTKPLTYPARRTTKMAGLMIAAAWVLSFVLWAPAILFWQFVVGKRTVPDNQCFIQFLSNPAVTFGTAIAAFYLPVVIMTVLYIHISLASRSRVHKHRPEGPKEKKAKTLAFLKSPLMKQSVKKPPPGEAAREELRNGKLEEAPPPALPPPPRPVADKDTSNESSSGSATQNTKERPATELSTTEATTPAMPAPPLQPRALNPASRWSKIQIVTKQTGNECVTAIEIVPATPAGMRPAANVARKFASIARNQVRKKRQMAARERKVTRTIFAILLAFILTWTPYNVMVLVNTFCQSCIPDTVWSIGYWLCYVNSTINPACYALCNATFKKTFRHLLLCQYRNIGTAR

A further experiment deals with T3, Substance-K receptor (Homo sapiens, UniProt P21452).
T3 sequence (P21452 whole entry): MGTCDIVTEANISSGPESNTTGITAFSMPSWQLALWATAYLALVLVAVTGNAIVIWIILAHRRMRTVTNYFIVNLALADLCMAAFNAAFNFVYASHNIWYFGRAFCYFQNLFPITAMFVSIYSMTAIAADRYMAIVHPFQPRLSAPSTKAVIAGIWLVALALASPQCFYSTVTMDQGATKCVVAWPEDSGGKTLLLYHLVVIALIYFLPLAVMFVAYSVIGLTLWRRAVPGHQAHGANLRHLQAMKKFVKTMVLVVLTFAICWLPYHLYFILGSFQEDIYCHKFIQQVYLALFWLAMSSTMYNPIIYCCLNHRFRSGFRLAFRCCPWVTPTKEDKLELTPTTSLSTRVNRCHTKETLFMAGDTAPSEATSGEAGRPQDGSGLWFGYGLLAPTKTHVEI

Experiment [3] has as its target 5-hydroxytryptamine receptor 5A (Homo sapiens, UniProt P47898).
The target in experiment [4] is T1, Androgen receptor.
Experiment [5] addresses Receptor tyrosine-protein kinase erbB-2 (Homo sapiens, UniProt P04626). Type of experiment: functional.
The target in the next experiment is Acetylcholinesterase (Homo sapiens, UniProt P22303). Type of experiment: functional.
Chain of Acetylcholinesterase (P22303 whole entry): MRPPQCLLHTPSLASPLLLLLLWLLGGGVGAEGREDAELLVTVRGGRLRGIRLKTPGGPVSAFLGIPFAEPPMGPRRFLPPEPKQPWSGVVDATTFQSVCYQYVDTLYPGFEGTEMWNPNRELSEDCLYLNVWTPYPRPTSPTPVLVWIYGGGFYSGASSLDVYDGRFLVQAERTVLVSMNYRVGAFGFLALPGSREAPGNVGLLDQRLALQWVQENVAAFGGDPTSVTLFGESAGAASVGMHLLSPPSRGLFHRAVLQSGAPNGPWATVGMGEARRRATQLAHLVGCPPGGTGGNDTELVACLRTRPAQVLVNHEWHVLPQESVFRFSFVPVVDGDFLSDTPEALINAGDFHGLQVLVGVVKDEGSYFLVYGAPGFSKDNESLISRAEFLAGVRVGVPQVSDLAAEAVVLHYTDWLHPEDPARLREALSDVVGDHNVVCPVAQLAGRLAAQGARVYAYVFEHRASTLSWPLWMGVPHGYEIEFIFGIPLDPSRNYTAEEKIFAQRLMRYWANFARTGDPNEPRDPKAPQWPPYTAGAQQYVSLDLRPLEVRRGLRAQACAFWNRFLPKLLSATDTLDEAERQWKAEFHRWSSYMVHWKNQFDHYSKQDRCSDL
The target in experiment [6] is T4, Peroxisome proliferator-activated receptor alpha (Homo sapiens, UniProt Q07869).
T4 sequence (Q07869 whole entry): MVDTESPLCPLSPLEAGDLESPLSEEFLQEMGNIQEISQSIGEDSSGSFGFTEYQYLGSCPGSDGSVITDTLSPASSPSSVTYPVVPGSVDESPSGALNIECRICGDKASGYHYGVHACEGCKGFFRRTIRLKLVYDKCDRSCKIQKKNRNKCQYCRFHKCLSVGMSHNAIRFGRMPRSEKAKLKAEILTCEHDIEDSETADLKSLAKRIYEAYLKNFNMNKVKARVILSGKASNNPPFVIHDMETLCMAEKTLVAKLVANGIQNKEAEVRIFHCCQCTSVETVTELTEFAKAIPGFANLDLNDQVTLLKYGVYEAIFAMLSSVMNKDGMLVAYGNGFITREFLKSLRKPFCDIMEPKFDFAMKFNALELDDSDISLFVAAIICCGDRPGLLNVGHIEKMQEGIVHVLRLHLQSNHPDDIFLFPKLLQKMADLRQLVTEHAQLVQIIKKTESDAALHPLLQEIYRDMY
Type of experiment: functional.

Experiment [7] addresses T5, Nuclear receptor subfamily 1 group I member 3 (Homo sapiens, UniProt Q14994).
T5 sequence (Q14994 whole entry): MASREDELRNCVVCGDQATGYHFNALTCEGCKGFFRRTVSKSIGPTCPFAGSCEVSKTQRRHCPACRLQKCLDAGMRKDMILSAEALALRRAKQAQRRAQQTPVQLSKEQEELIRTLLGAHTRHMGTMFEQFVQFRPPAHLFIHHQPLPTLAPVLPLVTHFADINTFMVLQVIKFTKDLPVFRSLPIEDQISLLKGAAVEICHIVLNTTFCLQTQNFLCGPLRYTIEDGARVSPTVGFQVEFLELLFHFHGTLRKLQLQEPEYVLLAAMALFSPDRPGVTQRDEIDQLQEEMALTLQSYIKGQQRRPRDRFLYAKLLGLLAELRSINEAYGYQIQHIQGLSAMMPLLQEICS
Type of experiment: functional.

For experiment [8], the target named is Epidermal growth factor receptor (Homo sapiens, UniProt P00533). The class given is functional.
Chain of Epidermal growth factor receptor (P00533 whole entry): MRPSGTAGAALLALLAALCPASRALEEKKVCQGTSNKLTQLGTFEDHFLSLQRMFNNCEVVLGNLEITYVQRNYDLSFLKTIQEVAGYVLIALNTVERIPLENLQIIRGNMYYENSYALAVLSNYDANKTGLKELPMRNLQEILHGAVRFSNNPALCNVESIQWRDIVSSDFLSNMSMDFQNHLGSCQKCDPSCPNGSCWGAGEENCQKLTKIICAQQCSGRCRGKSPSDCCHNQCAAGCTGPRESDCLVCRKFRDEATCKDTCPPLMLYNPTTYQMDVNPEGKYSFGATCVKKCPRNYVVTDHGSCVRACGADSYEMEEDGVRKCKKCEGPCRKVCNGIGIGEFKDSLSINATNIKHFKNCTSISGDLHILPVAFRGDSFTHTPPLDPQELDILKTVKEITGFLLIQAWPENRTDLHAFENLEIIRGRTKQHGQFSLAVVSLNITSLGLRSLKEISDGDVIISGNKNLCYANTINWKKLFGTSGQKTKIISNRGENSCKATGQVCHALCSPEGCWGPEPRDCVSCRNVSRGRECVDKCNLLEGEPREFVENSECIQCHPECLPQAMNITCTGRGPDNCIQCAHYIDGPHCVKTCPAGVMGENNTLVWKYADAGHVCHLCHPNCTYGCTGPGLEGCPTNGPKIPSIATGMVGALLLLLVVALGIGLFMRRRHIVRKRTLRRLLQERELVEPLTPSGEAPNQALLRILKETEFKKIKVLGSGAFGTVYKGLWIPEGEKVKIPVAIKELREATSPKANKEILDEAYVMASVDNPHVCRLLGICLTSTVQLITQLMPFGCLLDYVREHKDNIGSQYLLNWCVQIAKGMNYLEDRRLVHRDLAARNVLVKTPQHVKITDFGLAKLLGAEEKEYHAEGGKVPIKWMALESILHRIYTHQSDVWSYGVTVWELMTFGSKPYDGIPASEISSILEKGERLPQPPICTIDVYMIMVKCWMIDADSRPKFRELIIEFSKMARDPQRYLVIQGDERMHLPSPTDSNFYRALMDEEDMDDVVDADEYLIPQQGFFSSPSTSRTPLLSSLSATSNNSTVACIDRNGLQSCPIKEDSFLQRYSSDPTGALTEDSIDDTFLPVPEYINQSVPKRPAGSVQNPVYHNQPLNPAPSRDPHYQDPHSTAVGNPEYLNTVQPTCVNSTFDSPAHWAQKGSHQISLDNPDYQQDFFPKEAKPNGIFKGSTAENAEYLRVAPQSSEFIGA

Structures are written as SMILES.
Also: assay procedure not described here.

Chain of 5-hydroxytryptamine receptor 5A (P47898 whole entry): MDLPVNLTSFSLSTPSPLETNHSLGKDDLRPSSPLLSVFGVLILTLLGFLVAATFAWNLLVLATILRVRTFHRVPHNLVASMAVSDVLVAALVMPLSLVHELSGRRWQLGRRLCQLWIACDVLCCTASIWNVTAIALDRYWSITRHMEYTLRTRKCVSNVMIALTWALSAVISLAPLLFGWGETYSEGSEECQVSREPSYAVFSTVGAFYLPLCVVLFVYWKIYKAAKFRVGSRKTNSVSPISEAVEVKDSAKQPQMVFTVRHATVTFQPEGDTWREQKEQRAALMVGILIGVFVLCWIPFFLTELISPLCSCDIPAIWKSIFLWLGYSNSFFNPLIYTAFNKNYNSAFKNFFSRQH
Chain of Receptor tyrosine-protein kinase erbB-2 (P04626 whole entry): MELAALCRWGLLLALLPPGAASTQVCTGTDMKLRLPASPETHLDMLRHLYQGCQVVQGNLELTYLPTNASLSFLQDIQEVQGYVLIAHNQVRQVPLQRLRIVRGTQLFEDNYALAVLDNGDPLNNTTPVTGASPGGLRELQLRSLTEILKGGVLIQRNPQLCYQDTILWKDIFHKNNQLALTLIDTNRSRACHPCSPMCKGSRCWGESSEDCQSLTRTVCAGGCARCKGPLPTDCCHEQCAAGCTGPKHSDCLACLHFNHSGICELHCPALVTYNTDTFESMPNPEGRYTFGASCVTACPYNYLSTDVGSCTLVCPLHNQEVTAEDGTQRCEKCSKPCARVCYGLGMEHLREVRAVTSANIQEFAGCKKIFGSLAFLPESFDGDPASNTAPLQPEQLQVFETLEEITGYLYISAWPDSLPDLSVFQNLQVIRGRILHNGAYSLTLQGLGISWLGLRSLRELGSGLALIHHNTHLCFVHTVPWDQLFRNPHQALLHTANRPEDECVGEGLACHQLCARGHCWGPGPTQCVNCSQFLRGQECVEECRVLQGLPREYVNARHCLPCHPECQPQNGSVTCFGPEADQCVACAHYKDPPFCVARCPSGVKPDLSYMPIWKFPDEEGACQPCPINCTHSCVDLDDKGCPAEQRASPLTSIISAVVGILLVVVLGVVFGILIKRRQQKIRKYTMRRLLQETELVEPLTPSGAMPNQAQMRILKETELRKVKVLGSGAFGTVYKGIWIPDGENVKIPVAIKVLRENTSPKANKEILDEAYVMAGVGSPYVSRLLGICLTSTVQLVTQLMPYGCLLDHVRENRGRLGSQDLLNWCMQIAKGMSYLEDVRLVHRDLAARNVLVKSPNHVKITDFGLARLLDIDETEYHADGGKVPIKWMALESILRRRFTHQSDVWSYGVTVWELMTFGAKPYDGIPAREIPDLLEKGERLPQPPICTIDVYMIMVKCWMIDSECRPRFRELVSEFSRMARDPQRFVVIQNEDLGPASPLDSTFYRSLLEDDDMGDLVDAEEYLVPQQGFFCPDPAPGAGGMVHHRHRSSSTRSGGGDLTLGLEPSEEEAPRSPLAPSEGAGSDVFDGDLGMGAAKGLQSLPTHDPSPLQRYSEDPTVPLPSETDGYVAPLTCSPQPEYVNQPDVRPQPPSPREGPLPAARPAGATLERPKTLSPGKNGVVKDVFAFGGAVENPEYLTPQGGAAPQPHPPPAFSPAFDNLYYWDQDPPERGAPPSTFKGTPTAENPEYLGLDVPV

One may read the AC50 as the concentration giving half of the maximal activity seen. `C[C@@H](NCCCc1cccc(C(F)(F)F)c1)c1cccc2ccccc12`: the AC50 at Androgen receptor [1] was greater than 30 µM.
Take `Cc1onc(-c2ccccc2)c1-c1ccc(S(N)(=O)=O)cc1` [VALDECOXIB]: the AC50 (in experiment [2]; at Substance-K receptor; in experiment [3]) was greater than 10 µM throughout.
On to `CN(C)CCc1c[nH]c2ccc(Cn3cncn3)cc12` [RIZATRIPTAN], for which, on Androgen receptor [4], the AC50 is greater than 30 µM.
`COc1cc2nccc(Oc3ccc(NC(=O)C4(C(=O)Nc5ccc(F)cc5)CC4)cc3)c2cc1OC` [CABOZANTINIB]: the AC50 in experiment [5] is 6.2 µM; on Acetylcholinesterase it was greater than 30 µM.
As to `N[C@@H](CC(=O)N1CCn2c(nnc2C(F)(F)F)C1)Cc1cc(F)c(F)cc1F` [SITAGLIPTIN], the AC50 (in experiment [2]; at Substance-K receptor; in [3]) was greater than 10 µM in each case.
Compound `COc1ccc(CC2c3cc(OC)c(OC)cc3CC[N+]2(C)CCC(=O)OCCCCCOC(=O)CC[N+]2(C)CCc3cc(OC)c(OC)cc3C2Cc2ccc(OC)c(OC)c2)cc1OC` (centres undefined) showed an AC50 at Androgen receptor [1] greater than 30 µM.
`CCN(CC)CCNC(=O)c1c(C)[nH]c(/C=C2\C(=O)Nc3ccc(F)cc32)c1C` [SUNITINIB]: the AC50 in [2] is greater than 10 µM; in experiment [3], 10 µM; in experiment [6], greater than 30 µM; in [7], greater than 30 µM.
For the compound `COc1ccccc1Oc1c(NS(=O)(=O)c2ccc(C(C)(C)C)cc2)nc(-c2ncccn2)nc1OCCO` [BOSENTAN], the AC50 in [6] was greater than 30 µM; in experiment [7] it was 2.1 µM.
`CC(C(=O)O)c1ccc2c(c1)[nH]c1ccc(Cl)cc12` (centres undefined) [CARPROFEN]: the half-maximal activity concentration (AC50) in [6] and in experiment [7] was greater than 30 µM in each case.
Take `CCN1CCN(Cc2ccc(Nc3ncc(F)c(-c4cc(F)c5nc(C)n(C(C)C)c5c4)n3)nc2)CC1` [ABEMACICLIB]: the figures for the AC50 (in experiment [8]; in [5]; at Acetylcholinesterase) were 9.5 µM, greater than 30 µM and greater than 30 µM, respectively.
In experiment [6], `CC(C)Cc1ccc(C(C)C(=O)O)cc1` (centres undefined) [IBUPROFEN] had an AC50 greater than 30 µM.
Take `COc1ccccc1OCCNCC(O)COc1cccc2[nH]c3ccccc3c12` (centres undefined) [CARVEDILOL]: the AC50 at Androgen receptor [1] and on Androgen receptor [4] was greater than 30 µM each time.
On to `CC(=O)O[C@]1(C(C)=O)CC[C@H]2[C@@H]3C=C(C)C4=CC(=O)CC[C@@H]4[C@H]3CC[C@@]21C` [NOMEGESTROL ACETATE], for which the AC50 on Androgen receptor [1] was greater than 30 µM.
In the case of `CCCN(CCC)C(=O)Cc1c(-c2ccc(Cl)cc2)nc2ccc(Cl)cn12` [ALPIDEM], the AC50 (in [2]; on Substance-K receptor) was greater than 10 µM in each case.
As for `CCCC(CCC)C(=O)O` [VALPROIC ACID], the half-maximal activity concentration (AC50) (in experiment [2]; at Substance-K receptor) was greater than 10 µM throughout.
For the compound `C[C@H](CCC(=O)O)[C@H]1CC[C@H]2[C@@H]3[C@@H](O)C[C@@H]4C[C@H](O)CC[C@]4(C)[C@H]3CC[C@]12C` [URSODIOL], the AC50 (in [8]; in [5]; at Acetylcholinesterase) was greater than 30 µM throughout.
`C=CC[C@@H]1/C=C(\C)C[C@H](C)C[C@H](OC)[C@H]2O[C@@](O)(C(=O)C(=O)N3CCCC[C@H]3C(=O)O[C@H](/C(C)=C/[C@@H]3CC[C@@H](O)[C@H](OC)C3)[C@H](C)[C@@H](O)CC1=O)[C@H](C)C[C@@H]2OC` [TACROLIMUS ANHYDROUS]: the AC50 (in [8]; in experiment [5]; at Androgen receptor [4]; on Acetylcholinesterase) was greater than 30 µM each time.
For `CO[C@H]1/C=C/O[C@@]2(C)Oc3c(C)c(O)c4c(O)c(c(/C=N/N5CCN(C)CC5)c(O)c4c3C2=O)NC(=O)/C(C)=C\C=C\[C@H](C)[C@H](O)[C@@H](C)[C@@H](O)[C@@H](C)[C@H](OC(C)=O)[C@@H]1C` [RIFAMPIN], the AC50 in experiment [6] and in [7] was greater than 30 µM throughout.

The values are drawn from ChEMBL document CHEMBL5291721, “A preclinical secondary pharmacology resource illuminates target-adverse drug reaction associations of marketed drugs” (Nat Commun, 2023).
